Measured values: US9708308B2, “Factor IXa inhibitors” (Merck Sharp & Dohme Corp., priority 2012, dated 2017)

Target: Factor IXa (Homo sapiens, UniProt P00740)
Test: Determination of inhibitory activity against Factor IXa (cleavage of fluorescent peptide substrate)
Assay type: biochemical
Settings: cleavage of fluorescent peptide CH3SO2-D-CHG-Gly-Arg-AFC, release of AFC; read-out: FIXa IC50
Text: • (R)—N-(3-aminobenzo[d]isoxazol-6-yl)-2-hydroxy-2-((R)-4-(1-(6-methoxypyridazin-4-yl)-1H-pyrazol-3-yl)-6,6-dimethyl-3-oxomorpholin-2-yl)acetamide. Determination of Inhibitory Activity Against Factor IXa
Formation of a clot to stem bleeding at a site of blood vessel injury involves the coordinated activity of a group of plasma proteins that initiate and propagate fibrin formation and subsequently protect fibrin from premature degradation. Factor IX is a key component of the plasma system that forms a fibrin clot at a site of vascular injury. The activity of Factor IXa is measured by monitoring the cleavage of the fluorescent peptide, CH3SO2-D-CHG-Gly-Arg-AFC.AcOH (“CHG” is cyclohexyl-glycine and “AFC” is trifluoro aminomethyl coumarin). Factor IXa cleaves the amide bond between Arg and AFC, thereby releasing the AFC fluorophore. The free AFC can be detected with a fluorescence detector at an excitation wavelength of 405 nm and emission wavelength of 510 nm.

Chain of Factor IXa (P00740 227-461 limits assumed): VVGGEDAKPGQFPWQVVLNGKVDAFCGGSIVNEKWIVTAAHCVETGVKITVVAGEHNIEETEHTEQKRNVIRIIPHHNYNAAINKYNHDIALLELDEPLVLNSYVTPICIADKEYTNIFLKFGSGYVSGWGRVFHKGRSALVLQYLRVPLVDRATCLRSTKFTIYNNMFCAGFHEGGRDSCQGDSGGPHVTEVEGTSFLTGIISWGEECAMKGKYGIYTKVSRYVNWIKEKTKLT
Chain of Factor IXa (P00740 47-191 partner limits assumed): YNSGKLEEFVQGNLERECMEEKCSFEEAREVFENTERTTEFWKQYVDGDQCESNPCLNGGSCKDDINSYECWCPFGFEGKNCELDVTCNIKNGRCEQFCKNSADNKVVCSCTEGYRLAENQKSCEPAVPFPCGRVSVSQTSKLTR

IC50	Compound
289 nM	C[C@](O)(C(=O)Nc1ccc2c(N)noc2c1)[C@H]1OCCN(c2ccn(-c3ccc(C(=O)O)cc3)n2)C1=O [Example 15, 4-(3-((R)-2-((R)-1-((3-aminobenzo[d]isoxazol-6-yl)amino)-2-hydroxy-1-oxopropan-2-yl)-3-oxomorpholino)-1H-pyrazol-1-yl)benzoic acid]
137 nM	C[C@](O)(C(=O)Nc1ccc2c(N)noc2c1)[C@H]1OCCN(c2ccn(-c3ccc(C#N)c(Cl)c3)n2)C1=O [Example 16, (R)—N-(3-aminobenzo[d]isoxazol-6-yl)-2-((R)-4-(1-(3-chloro-4-cyanophenyl)-1H-pyrazol-3-yl)-3-oxomorpholin-2-yl)-2-hydroxypropanamide]
548 nM	C[C@](O)(C(=O)Nc1ccc2c(N)noc2c1)[C@H]1OCCN(c2nn(-c3ccc(F)cc3)cc2F)C1=O [Example 17, (R)—N-(3-aminobenzo[d]isoxazol-6-yl)-2-((R)-4-(4-fluoro-1-(4-fluorophenyl)-1H-pyrazol-3-yl)-3-oxomorpholin-2-yl)-2-hydroxypropanamide]
71.9 nM	Cc1cc(-n2ccc(N3CCO[C@H]([C@@](C)(O)C(=O)Nc4ccc5c(N)noc5c4)C3=O)n2)ccn1 [Example 19, (R)—N-(3-aminobenzo[d]isoxazol-6-yl)-2-hydroxy-2-((R)-4-(1-(2-methylpyridin-4-yl)-1H-pyrazol-3-yl)-3-oxomorpholin-2-yl)propanamide]

Second part, the molecule before the results:

Compound	IC50
COc1cc(-n2ccc(N3CCO[C@H]([C@@](C)(O)C(=O)Nc4ccc5c(N)noc5c4)C3=O)n2)ccn1 [Example 1, (2R)—N-(3-Amino-1,2-benzoxazol-6-yl)-2-hydroxy-2-[(2R)-4-[1-(2-methoxy-4-pyridyl)pyrazol-3-yl]-3-oxo-morpholin-2-yl]propanamide]	160 nM
Cc1cc(N2CCO[C@H]([C@@](C)(O)C(=O)Nc3ccc4c(N)noc4c3)C2=O)nn1-c1cnnc(C#N)c1 [Example 3]	68.4 nM
CCOc1cc(-n2ccc(N3CCO[C@H]([C@@](C)(O)C(=O)Nc4ccc5c(N)noc5c4)C3=O)n2)cnn1 [Example 4]	23.2 nM
C[C@](O)(C(=O)Nc1ccc2c(N)noc2c1)[C@H]1OCCN(c2ccn(-c3cnnc(C(N)=O)c3)n2)C1=O [Example 5, 5-(3-((R)-2-((R)-1-((3-Aminobenzo[d]isoxazol-6-yl)amino)-2-hydroxy-1-oxopropan-2-yl)-3-oxomorpholino)-1H-pyrazol-1-yl)pyridazine-3-carboxamide]	20.2 nM
C[C@](O)(C(=O)Nc1ccc2c(N)noc2c1)[C@H]1OCCN(c2ccn(-c3cnnc(OC(CO)CCl)c3)n2)C1=O (stereo partly drawn) [Example 6, (2R)—N-(3-Aminobenzo[d]isoxazol-6-yl)-2-((2R)-4-(1-(6-((1-chloro-3-hydroxypropan-2-yl)oxy)pyridazin-4-yl)-1H-pyrazol-3-yl)-3-oxomorpholin-2-yl)-2-hydroxypropanamide]	975 nM
C[C@](O)(C(=O)Nc1ccc2c(N)noc2c1)[C@H]1OCCN(c2ccn(-c3ccc(=O)n(C(F)F)c3)n2)C1=O [Example 7, (R)—N-(3-Aminobenzo[d]isoxazol-6-yl)-2-((R)-4-(1-(1-(difluoromethyl)-6-oxo-1,6-dihydropyridin-3-yl)-1H-pyrazol-3-yl)-3-oxomorpholin-2-yl)-2-hydroxypropanamide]	18.1 nM
C[C@](O)(C(=O)Nc1ccc2c(N)noc2c1)[C@H]1OCCN(c2ccn(-c3ccc(F)cc3)n2)C1=O [Example 13, (R)—N-(3-aminobenzo[d]isoxazol-6-yl)-2-((R)-4-(1-(4-fluorophenyl)-1H-pyrazol-3-yl)-3-oxomorpholin-2-yl)-2-hydroxypropanamide]	678 nM
C[C@](O)(C(=O)Nc1ccc2c(N)noc2c1)[C@H]1OCCN(c2ccn(-c3ccc(S(C)(=O)=O)cc3)n2)C1=O [Example 14, (R)—N-(3-aminobenzo[d]isoxazol-6-yl)-2-hydroxy-2-((R)-4-(1-(4-(methylsulfonyl)phenyl)-1H-pyrazol-3-yl)-3-oxomorpholin-2-yl)propanamide]	13.2 nM
